This note sets out measurements from paper PMC7181660, “A novel specific PERK activator reduces toxicity and extends survival in Huntington's disease models” (Scientific Reports, 2020).

For assay [1], the target named is panel of 391 kinases (Homo sapiens, UniProt P37173). In words: biochemical. It is filed as biochemical. Conditions: TGFBR2; ATP 1 µM; read-out: Control Compound IC50.
The target in another assay is T1, PERK (EIF2AK3) (Homo sapiens, UniProt Q9NZJ5).
T1 construct: GST; purchased Life technologies, Carlsbad, CA; host or cells: insect cells
T1 sequence (Q9NZJ5 536-1116): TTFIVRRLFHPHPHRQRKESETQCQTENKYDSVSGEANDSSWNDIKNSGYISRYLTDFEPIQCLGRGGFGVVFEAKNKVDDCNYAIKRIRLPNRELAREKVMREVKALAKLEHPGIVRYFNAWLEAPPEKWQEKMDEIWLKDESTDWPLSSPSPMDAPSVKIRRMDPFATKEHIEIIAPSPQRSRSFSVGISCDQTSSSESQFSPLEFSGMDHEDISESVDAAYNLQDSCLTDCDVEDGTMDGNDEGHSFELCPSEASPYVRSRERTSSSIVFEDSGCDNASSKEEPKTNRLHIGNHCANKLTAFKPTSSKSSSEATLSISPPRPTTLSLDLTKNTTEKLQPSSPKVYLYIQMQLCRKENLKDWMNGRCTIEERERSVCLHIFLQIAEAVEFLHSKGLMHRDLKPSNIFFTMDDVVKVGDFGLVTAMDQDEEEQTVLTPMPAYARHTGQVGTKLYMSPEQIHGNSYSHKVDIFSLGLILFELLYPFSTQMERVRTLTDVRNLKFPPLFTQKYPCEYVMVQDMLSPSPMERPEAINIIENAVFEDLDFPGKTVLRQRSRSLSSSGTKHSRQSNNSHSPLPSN
Nature of the assay: In vitro HotSpot kinase assay on isolated PERK. To be noted: HotSpot Kinase Assay. Format: biochemical. As for the experimental part:
In vitro kinase assays with purified components and full kinase panel analysis was done at Reaction Biology Corp. (Malvern, PA, USA) using the HotSpot Kinase Assay. Reactions were performed for 20 min at room temp. using ^33P-ATP (Specific activity 10 μCi/μl) with 1 μM total ATP, 20 μM substrate and kinases in the nanomolar range in 20 mM Hepes (pH 7.5), 10 mM MgCl2, 1 mM EGTA, 0.02% Brij35, 0.02 mg/ml BSA, 0.1 mM Na3VO4, 2 mM DTT, 1% DMSO and other required factors depending on the assayed kinase.

A further assay has as its system STHdh^Q111/111 cells. Nature of the assay: Toxicity assay: rescue from tunicamycin (ER stress)-induced apoptosis, FACS with propidium iodide (sub-G0/G1). Conditions: for rescue from ER stress-induced apoptosis: 0–100 μM, 48 h Tun exposure (Fig. 1C). It is filed as cell-based, murine. As to the method:
(§1) STHdh^Q111/111 cells (used before[13]) or PERK+/+ or PERK−/− MEFs (kindly provided by David Ron, Univ. Cambridge) were incubated with Tun (10 μg/ml) for 48 h, which results in ER stress-induced cell death. Cells under the same conditions were incubated for the same times, together with Tun, with increasing concentrations of the different PERK modulators (0–120 μM) and the percent of apoptotic cells was measured by FACS cell cycle progression using propidium iodide (PI), considering the fraction beneath G0/G1. The relative apoptosis rate was calculated to be able to compare between compounds and experiments, where for each concentration curve the percent of apoptotic cells was considered 100 at concentration 0 of the PERK modulator, with only Tun. The graphs show the average relative apoptosis rate of at least 3 independent experiments for each compound.
(§2) Cells were washed with PBS and fixed with cold methanol. Before FACS analysis cells were washed with PBS, followed by addition of propidium iodide (PI) solution (10 μg/ml) and analysis by flow cytometry. Cells in sub-G0/G1 were counted as apoptotic/ dead.

A further assay has as its system WT MEF cells. In words: Rescue from tunicamycin-induced apoptosis in WT MEFs. It is filed as cell-based. Conditions: WT MEFs treated with Tun; read-out: IC50 for inhibition of apoptosis. As to the method:
as §1, §2

The test system of a further assay is PERK−/− MEF cells. Nature of the assay: Rescue from tunicamycin-induced apoptosis in PERK−/− MEFs. Format: cell-based. Conditions: Tun. As for the experimental part: as §1, §2
In the next assay the test system is PERK-P. In words: PERK phosphorylation shift by immunoblot in MEF cells. Format: cell-based. Conditions: 3 hours, Thap 2 μg/ml.
The target in assay [2] is panel of 391 kinases (Homo sapiens, UniProt Q9BYP7). In words: biochemical. To be noted: WNK3; ATP 1 µM; read-out: Control Compound IC50. Format: biochemical.
The target of assay [3] is panel of 391 kinases (Homo sapiens, UniProt P27361). Nature of the assay: biochemical. Format: biochemical. To be noted: ERK1; ATP 1 µM; read-out: Control Compound IC50.
The target of assay [4] is T2, panel of 391 kinases (Homo sapiens, UniProt P10398).
T2 sequence (P10398 1-606): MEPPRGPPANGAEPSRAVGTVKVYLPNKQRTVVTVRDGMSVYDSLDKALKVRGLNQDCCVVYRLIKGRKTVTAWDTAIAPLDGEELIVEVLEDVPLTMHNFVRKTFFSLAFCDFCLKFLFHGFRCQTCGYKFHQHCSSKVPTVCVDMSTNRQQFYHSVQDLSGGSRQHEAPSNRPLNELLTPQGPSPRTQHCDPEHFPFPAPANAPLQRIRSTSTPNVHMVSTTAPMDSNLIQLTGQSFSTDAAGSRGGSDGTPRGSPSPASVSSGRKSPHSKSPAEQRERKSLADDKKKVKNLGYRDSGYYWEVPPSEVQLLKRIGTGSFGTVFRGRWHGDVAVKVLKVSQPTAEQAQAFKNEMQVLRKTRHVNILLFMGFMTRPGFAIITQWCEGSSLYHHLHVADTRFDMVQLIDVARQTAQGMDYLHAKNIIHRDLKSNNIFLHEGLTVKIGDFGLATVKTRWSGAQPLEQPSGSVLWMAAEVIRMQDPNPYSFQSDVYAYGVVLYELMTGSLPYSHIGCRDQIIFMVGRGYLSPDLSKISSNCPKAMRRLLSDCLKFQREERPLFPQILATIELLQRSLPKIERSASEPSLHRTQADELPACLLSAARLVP
In words: biochemical. It is filed as biochemical. To be noted: ARAF; ATP 1 µM; read-out: Control Compound IC50.

The target of assay [5] is panel of 391 kinases (Homo sapiens, UniProt P68400). Nature of the assay: biochemical. Format: biochemical. Conditions: CK2a; ATP 1 µM; read-out: Control Compound IC50.
The target of assay [6] is panel of 391 kinases (Homo sapiens, UniProt Q15118). In words: biochemical. Format: biochemical. Conditions: kinase PDK1/PDHK1; 10-dose IC50 mode; 1 µM ATP; read-out: Control Compound IC50.
Assay [7] addresses panel of 391 kinases (Homo sapiens, UniProt Q15119). In words: biochemical. Format: biochemical. Conditions: kinase PDK2/PDHK2; 10-dose IC50 mode; 1 µM ATP; read-out: Control Compound IC50.
The target in assay [8] is panel of 391 kinases (Homo sapiens, UniProt Q15120). In words: biochemical. It is filed as biochemical. Conditions: kinase PDK3/PDHK3; 10-dose IC50 mode; 1 µM ATP; read-out: Control Compound IC50.
Assay [9] deals with panel of 391 kinases (Homo sapiens, UniProt Q16654). In words: biochemical. Format: biochemical. To be noted: kinase PDK4/PDKH4; 10-dose IC50 mode; 1 µM ATP; read-out: Control Compound IC50.
Assay [10] deals with T3, panel of 391 kinases (Homo sapiens, UniProt Q9NR20).
T3 sequence (Q9NR20 1-520): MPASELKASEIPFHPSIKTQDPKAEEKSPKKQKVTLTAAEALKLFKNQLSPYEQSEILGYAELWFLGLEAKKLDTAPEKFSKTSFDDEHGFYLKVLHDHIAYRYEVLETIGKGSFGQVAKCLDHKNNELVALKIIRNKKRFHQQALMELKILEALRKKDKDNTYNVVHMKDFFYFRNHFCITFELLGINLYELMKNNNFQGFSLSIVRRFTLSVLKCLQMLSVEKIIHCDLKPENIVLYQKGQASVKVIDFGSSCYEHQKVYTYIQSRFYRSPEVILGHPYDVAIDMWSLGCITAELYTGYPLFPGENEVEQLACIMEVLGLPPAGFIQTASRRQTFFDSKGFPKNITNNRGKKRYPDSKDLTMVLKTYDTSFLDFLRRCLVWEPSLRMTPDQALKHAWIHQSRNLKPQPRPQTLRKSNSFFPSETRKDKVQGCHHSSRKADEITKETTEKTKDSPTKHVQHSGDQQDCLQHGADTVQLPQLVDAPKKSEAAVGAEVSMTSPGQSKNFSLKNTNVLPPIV
Nature of the assay: biochemical. Conditions: DYRK4; ATP 1 µM; read-out: Control Compound IC50. Format: biochemical.

The target in assay [11] is panel of 391 kinases (Homo sapiens, UniProt Q9NYL2). In words: biochemical. It is filed as biochemical. To be noted: ZAK/MLTK; ATP 1 µM; read-out: Control Compound IC50.
The target in assay [12] is panel of 391 kinases (Homo sapiens, UniProt Q9Y572). In words: biochemical. It is filed as biochemical. Conditions: RIPK3; ATP 1 µM; read-out: Control Compound IC50.
In assay [13] the target is panel of 391 kinases (Homo sapiens, UniProt Q8TDX7). In words: biochemical. Format: biochemical. Conditions: NEK7; ATP 1 µM; read-out: Control Compound IC50.
The target in assay [14] is panel of 391 kinases (Homo sapiens, UniProt Q9HC98). In words: biochemical. It is filed as biochemical. Conditions: NEK6; ATP 1 µM; read-out: Control Compound IC50.
Assay [15] deals with panel of 391 kinases (Homo sapiens, UniProt Q96QT4). In words: biochemical. To be noted: kinase TRPM7/CHAK1; 10-dose IC50 mode; 1 µM ATP; read-out: Control Compound IC50. Format: biochemical.
The target in assay [16] is panel of 391 kinases (Homo sapiens, UniProt Q9BQI3). Nature of the assay: biochemical. Format: biochemical. To be noted: kinase EIF2AK1; 10-dose IC50 mode; 1 µM ATP; read-out: Control Compound IC50.

As a reminder, the IC50 is the concentration that gives 50% inhibition. `c1ccc2c(-c3cnn4cc(-c5ccc(N6CCNCC6)cc5)cnc34)ccnc2c1` [LDN193189]: at panel of 391 kinases [1], the IC50 was determined as 89.6 nM.
Regarding `Cn1cc(-c2ccc3c(c2)CCN3C(=O)Cc2cccc(C(F)(F)F)c2)c2c(N)ncnc21` [GSK606414, 7-methyl-5-(1-{[3-(trifluoromethyl)phenyl]acetyl}-2,3-dihydro-1H-indol-5-yl)-7H-p yrrolo[2,3-d]pyrimidin-4-amine], the “effect on activity of isolated PERK” value at PERK (EIF2AK3) is on record as “clear inhibitory effect”.
As to `CCN(CC)CCC(=O)N1N=C(c2c(-c3ccccc3)c3cc(Br)ccc3[nH]c2=O)CC1c1ccc(Br)cc1` (stereo not drawn) [CCT020312, reference compound], the IC50 turned out to be 32400 nM in the assay with STHdh^Q111/111 cells (STHdh^Q111/111 cells treated with Tun, read-out: IC50 for inhibition of apoptosis) and 11100 nM in the assay on WT MEF cells. The “protection from apoptosis at lower concentrations” value in the assay on STHdh^Q111/111 cells (below 10 μM, Tun) is given as “failed to be protective”. In addition, the “protection from ER stress-induced cell death” value with PERK−/− MEF cells is reported as “failed to protect”.
Consider `COc1ccc(/C=N\N(C)c2nc(-c3ccccc3)cc(-c3ccccc3)n2)cc1O` [MK-29], for which the “rescue from ER stress-induced apoptosis” value in the assay on STHdh^Q111/111 cells is “inactive”.
As to `COc1cc(/C=N\N(C)c2nc(-c3ccccc3)cc(-c3ccccc3)n2)cc(OC)c1` [MK26], the “rescue from ER stress-induced apoptosis” value in the assay on STHdh^Q111/111 cells is “inactive”.
In the case of `C/C=C(/C)C(=O)O[C@H]1C(C)=C2[C@H]([C@@H]1OC(=O)CCCCCCC)[C@@](C)(OC(C)=O)C[C@H](OC(=O)CCC)[C@@]1(O)[C@H]2OC(=O)[C@@]1(C)O` [Thap, thapsigargin, reference compound], the “PERK migration shift (PERK-P)” value with PERK-P is given as “shift of PERK consistent with its phosphorylation”.
In the case of `O=C1NC(=O)c2c1c(-c1ccccc1Cl)cc1[nH]c3ccc(O)cc3c21` [Wee-1 Inhibitor], at panel of 391 kinases [2], the IC50 worked out at 1910 nM.
For `O=C(Nc1ccc2[nH]nc(-c3ccncc3)c2c1)[C@@H]1CCN(CC(=O)N2CCN(c3ccc(-c4ncccn4)cc3)CC2)C1` [SCH772984], at panel of 391 kinases [3], the IC50 was 12.6 nM.
As to `O=C1Nc2ccc(I)cc2/C1=C/c1cc(Br)c(O)c(Br)c1` [GW5074], the IC50 was 29.3 nM at panel of 391 kinases [4]; 35 nM at panel of 391 kinases [5]; 10300 nM on panel of 391 kinases [6]; 5520 nM on panel of 391 kinases [7]; 1890 nM at panel of 391 kinases [8]; 1680 nM at panel of 391 kinases [9]. Moreover, the IC50 on panel of 391 kinases [10] amounted to 1140 nM; on panel of 391 kinases [11], 1340 nM; at panel of 391 kinases [12], 1140 nM.
With `O=C1Nc2ccc3ncsc3c2/C1=C/c1cnc[nH]1` [PKR Inhibitor], the IC50 was found to be 14800 nM at panel of 391 kinases [13] and 5690 nM at panel of 391 kinases [14].
Consider `CCCCCCCCCCCCCCCCn1cc[n+](Cc2ccccc2)c1C` [NH125], for which the IC50 at panel of 391 kinases [15] came to 11000 nM.
Regarding `COc1cc(/C=N\N(C)c2nc(-c3ccccc3)cc(-c3ccc(Br)cc3)n2)ccc1O` [A4, reference compound], the reduction of apoptosis result in the assay on STHdh^Q111/111 cells (5 μM, 48 h Tun exposure) is reported as “no significant effect”. Also, the “effect on activity of isolated PERK” value on PERK (EIF2AK3) is “activated PERK (EIF2AK3) in the nanomolar range, although to a small extent”.
With `Cn1cc(-c2ccc3c(c2)CCN3C(=O)Cc2cccc(C(F)(F)F)c2)c2c(N)ncnc21` [GSK-2606414], the IC50 at panel of 391 kinases [16] was 166 nM.
Regarding `COc1cc(/C=N\N(C)c2nc(-c3ccccc3)cc(-c3ccccc3)n2)cc(OC)c1O` [MK-30], the “rescue from ER stress-induced apoptosis” value with STHdh^Q111/111 cells was “inactive”.
